Measured values as given in publication PMC9416111, “Synthesis and Biological Activity of Unsymmetrical Monoterpenylhetaryl Disulfides” (Molecules, 2022).

System: influenza virus A/Puerto Rico/8/34 (H1N1)
Test: Antiviral cell protection assay in MDCK cells
Type: cell-based

## CC1(C)[C@H]2CC[C@@H](CSSc3ncccc3C(=O)O)[C@@H]1C2 [Compound 2d, 2-((((1S,2R,5S)-6,6-dimethylbicyclo[3.1.1]heptan-2-yl)methyl)disulfanyl)nicotinic acid]
  virus-inhibiting activity, in words: higher than that of Rimantadine
